{
  "source": "patent US4833164A",
  "about": "(E. I. Du Pont de Nemours and Company, priority 1986, dated 1989)",
  "origin": "cited, not measured here",
  "tested_on": "lipoxygenase",
  "conditions": "Nakadate et al.; Van Wauwe and Goossens; Panganamala et al.",
  "data": [
    {"smiles": "Oc1cccc2ccccc12", "note": "[Example 1-naphthol, 1-naphthol]", "values": [
      {"measurement": "lipoxygenase inhibitor (literature)", "value": "lipoxygenase inhibitor"}
    ]}
  ]
}
